Assay results taken from paper PMC6900016, “Synthesis of Indomorphan Pseudo‐Natural Product Inhibitors of Glucose Transporters GLUT‐1 and ‐3” (Angewandte Chemie (International Ed. in English), 2019).

Tests used:
Assay in all cases: cells
Parameters in all cases: Cell growth inhibition, sulforhodamine B total protein staining
THP1 = details: Homo sapiens, THP-1; 72 h growth; read-out: Cell growth inhibition IC50/µM
Protocol: (§1) Cell panel profiling A panel of 94 cell lines was exposed to Glupin for 72 h to assess the influence on cell growth (Oncolead, Germany). Cell growth was determined using sulforhodamine B assay. Measurements were performed using a total protein staining protocol. Briefly, after treatement cells were fixed addition of 10% TCA (for adherent growing cells) or 50% TCA (for semi-adherent growing cells or cells growing in suspension). After an incubation at 4°C for 1 h, plates were washed twice with 400 μl of deionized water and dried. Cells were then stained with 100 μl of 0.04% wt/v sulforhodamine B. Plates were incubated at room temperature for at least 30 min and washed six times with 1% acetic acid to remove unbound stain. […] This effect was much stronger at a physiological glucose concentration (5 mM; Figure 5 b,c). […] IC50 values lower than 300 nM were obtained for more than 20 cell lines, whereas 24 cell lines were not affected by the compound, among them the peripheral blood mononuclear control cells (PBMCs). Sensitivity to Glupin was detected across various tissue types (Table S6).

MV411 = details: Homo sapiens, MV4-11; 72 h growth; read-out: Cell growth inhibition IC50/µM
Protocol: as §1

NCIH292 = details: Homo sapiens, NCI-H292; 72 h growth; read-out: Cell growth inhibition IC50/µM
Protocol: as §1

MT3 = details: MT-3; 72 h growth; read-out: Cell growth inhibition IC50/µM
Protocol: as §1

RDES = details: RD-ES; 72 h growth; read-out: Cell growth inhibition IC50/µM
Protocol: as §1

SKOV3 = details: Homo sapiens, SK-OV-3; 72 h growth; read-out: Cell growth inhibition IC50/µM
Protocol: as §1

PANC1005 = details: Homo sapiens, Panc1005; 72 h growth; read-out: Cell growth inhibition IC50/µM
Protocol: as §1

PANC1 = details: Homo sapiens, PANC-1; 72 h growth; read-out: Cell growth inhibition IC50/µM
Protocol: as §1

WSUNHL = details: Homo sapiens, WSU-NHL; 72 h growth; read-out: Cell growth inhibition IC50/µM
Protocol: as §1

SUDHL10 = details: Homo sapiens, SU-DHL10; 72 h growth; read-out: Cell growth inhibition IC50/µM
Protocol: as §1

A673 = details: Homo sapiens, A673; 72 h growth; read-out: Cell growth inhibition IC50/µM
Protocol: as §1

JEG3 = details: Homo sapiens, JEG-3; 72 h growth; read-out: Cell growth inhibition IC50/µM
Protocol: as §1

SKMEL5 = details: Homo sapiens, SK-MEL-5; 72 h growth; read-out: Cell growth inhibition IC50/µM
Protocol: as §1

NCIH460 = details: Homo sapiens, NCI-H460; 72 h growth; read-out: Cell growth inhibition IC50/µM
Protocol: as §1

22RV1 = details: Homo sapiens, 22Rv1; 72 h growth; read-out: Cell growth inhibition IC50/µM
Protocol: as §1

GRANTA519 = details: Homo sapiens, Granta-519; 72 h growth; read-out: Cell growth inhibition IC50/µM
Protocol: as §1

A204 = details: Homo sapiens, A204; 72 h growth; read-out: Cell growth inhibition IC50/µM
Protocol: as §1

K562 = details: Homo sapiens, K562; 72 h growth; read-out: Cell growth inhibition IC50/µM
Protocol: as §1

IGROV1 = details: Homo sapiens, IGROV-1; 72 h growth; read-out: Cell growth inhibition IC50/µM
Protocol: as §1

SUDHL6 = details: Homo sapiens, SU-DHL-6; 72 h growth; read-out: Cell growth inhibition IC50/µM
Protocol: as §1

MHHES1 = details: Homo sapiens, MHH-ES-1; 72 h growth; read-out: Cell growth inhibition IC50/µM
Protocol: as §1

C33A = details: Homo sapiens, C-33-A; 72 h growth; read-out: Cell growth inhibition IC50/µM
Protocol: as §1

MDAMB436 = details: Homo sapiens, MDA-MB-436; 72 h growth; read-out: Cell growth inhibition IC50/µM
Protocol: as §1

IC50 (THP1): > 30 µM | IC50 (MV411): > 30 µM | IC50 (SKOV3): 6.07 µM | IC50 (PANC1005): 0.269 µM | IC50 (PANC1): 0.706 µM | IC50 (SUDHL10): 0.219 µM | IC50 (SKMEL5): > 30 µM | IC50 (22RV1): 5.57 µM | IC50 (K562): 0.137 µM | IC50 (SUDHL6): 0.092 µM | IC50 (MDAMB436): 11.1 µM
Compound: CCOC(=O)Cn1c2c(c3ccccc31)C[C@@H]1C[C@H]2C(OC)CN1C(=O)c1cccnc1SC (single isomer, unassigned; (+)) [(+)-5a, Glupin]
IC50 (NCIH292): > 30 µM | IC50 (MT3): 2.54 µM | IC50 (RDES): 3.71 µM | IC50 (WSUNHL): 0.062 µM | IC50 (A673): 3.64 µM | IC50 (JEG3): 0.933 µM | IC50 (NCIH460): 0.572 µM | IC50 (GRANTA519): > 30 µM | IC50 (A204): 0.562 µM | IC50 (IGROV1): 1.76 µM | IC50 (MHHES1): 1.49 µM | IC50 (C33A): 1.5 µM
